Source: ChEMBL document CHEMBL3046630, “Isolation and antifungal and antioomycete activities of staurosporine from Streptomyces roseoflavus strain LS-A24” (J Agric Food Chem, 2006)
Active and inactive are the calls of the source. The rule behind the calls is not given here.

Columns and labels:
Capsicum annuum = assay: Phytotoxicity in Phytophthora capsici zoospores suspension infected Capsicum annuum cv. Hanbyul (pepper) at first branch stage pre-exposed to compound spray on stems before fungal infection at 500 ug/mL under greenhouse conditions; assay type: organism-based; settings: in vivo, other
Phytophthora capsici [1] = assay: (§1) Antioomycete activity against Phytophthora capsici zoospores suspension infected in pepper plants (cv. Hanbyul) at first branch stage pre-exposed to compound spray on stems before fungal infection assessed as reduction in Phyophthora blight disease severity at 500 ug/mL under greenhouse conditions; assay type: functional, organism-based
Phytophthora capsici [2] = assay: as §1, with “1 to 1000” for “500”; assay type: functional, organism-based
Phytophthora capsici [3] = assay: Antioomycete activity against Phytophthora capsici zoospores suspension infected in pepper plants (cv. Hanbyul) at first branch stage pre-exposed to compound spray on stems before fungal infection assessed as reduction in Phyophthora blight disease severity at 100 ug/mL under greenhouse conditions; assay type: functional, organism-based

| Structure (SMILES) | Activity (Capsicum annuum) | Activity (Phytophthora capsici [1]) | Activity (Phytophthora capsici [2]) | Activity (Phytophthora capsici [3]) |
| --- | --- | --- | --- | --- |
| CN[C@@H]1C[C@H]2O[C@@](C)([C@@H]1OC)n1c3ccccc3c3c4c(c5c6ccccc6n2c5c31)C(=O)NC4 [STAUROSPORINE] | Non-toxic | Active | Dose-dependent effect |  |
| COCC(=O)N(c1c(C)cccc1C)C(C)C(=O)OC (stereo not given) |  |  | Dose-dependent effect | Active |
